{
  "source": "patent US20240269106A1",
  "about": "“SMALL MOLECULE MODULATOR TARGETING A RARE HISTONE MODIFICATION REGULATING ADIPOGENESIS AND PHARMACEUTICAL FORMULATION THEREOF” (COUNCIL OF SCIENTIFIC AND INDUSTRIAL RESEARCH AN INDIAN …, priority 2021, published 2024)",
  "key": {"full length p300": {"target": "T1, full length p300 (Homo sapiens, UniProt Q09472)", "T1 construct": "Purified full length p300 protein was used for in vitro acetylation/butyrylation assay", "T1 sequence (Q09472 whole entry, species assumed)": "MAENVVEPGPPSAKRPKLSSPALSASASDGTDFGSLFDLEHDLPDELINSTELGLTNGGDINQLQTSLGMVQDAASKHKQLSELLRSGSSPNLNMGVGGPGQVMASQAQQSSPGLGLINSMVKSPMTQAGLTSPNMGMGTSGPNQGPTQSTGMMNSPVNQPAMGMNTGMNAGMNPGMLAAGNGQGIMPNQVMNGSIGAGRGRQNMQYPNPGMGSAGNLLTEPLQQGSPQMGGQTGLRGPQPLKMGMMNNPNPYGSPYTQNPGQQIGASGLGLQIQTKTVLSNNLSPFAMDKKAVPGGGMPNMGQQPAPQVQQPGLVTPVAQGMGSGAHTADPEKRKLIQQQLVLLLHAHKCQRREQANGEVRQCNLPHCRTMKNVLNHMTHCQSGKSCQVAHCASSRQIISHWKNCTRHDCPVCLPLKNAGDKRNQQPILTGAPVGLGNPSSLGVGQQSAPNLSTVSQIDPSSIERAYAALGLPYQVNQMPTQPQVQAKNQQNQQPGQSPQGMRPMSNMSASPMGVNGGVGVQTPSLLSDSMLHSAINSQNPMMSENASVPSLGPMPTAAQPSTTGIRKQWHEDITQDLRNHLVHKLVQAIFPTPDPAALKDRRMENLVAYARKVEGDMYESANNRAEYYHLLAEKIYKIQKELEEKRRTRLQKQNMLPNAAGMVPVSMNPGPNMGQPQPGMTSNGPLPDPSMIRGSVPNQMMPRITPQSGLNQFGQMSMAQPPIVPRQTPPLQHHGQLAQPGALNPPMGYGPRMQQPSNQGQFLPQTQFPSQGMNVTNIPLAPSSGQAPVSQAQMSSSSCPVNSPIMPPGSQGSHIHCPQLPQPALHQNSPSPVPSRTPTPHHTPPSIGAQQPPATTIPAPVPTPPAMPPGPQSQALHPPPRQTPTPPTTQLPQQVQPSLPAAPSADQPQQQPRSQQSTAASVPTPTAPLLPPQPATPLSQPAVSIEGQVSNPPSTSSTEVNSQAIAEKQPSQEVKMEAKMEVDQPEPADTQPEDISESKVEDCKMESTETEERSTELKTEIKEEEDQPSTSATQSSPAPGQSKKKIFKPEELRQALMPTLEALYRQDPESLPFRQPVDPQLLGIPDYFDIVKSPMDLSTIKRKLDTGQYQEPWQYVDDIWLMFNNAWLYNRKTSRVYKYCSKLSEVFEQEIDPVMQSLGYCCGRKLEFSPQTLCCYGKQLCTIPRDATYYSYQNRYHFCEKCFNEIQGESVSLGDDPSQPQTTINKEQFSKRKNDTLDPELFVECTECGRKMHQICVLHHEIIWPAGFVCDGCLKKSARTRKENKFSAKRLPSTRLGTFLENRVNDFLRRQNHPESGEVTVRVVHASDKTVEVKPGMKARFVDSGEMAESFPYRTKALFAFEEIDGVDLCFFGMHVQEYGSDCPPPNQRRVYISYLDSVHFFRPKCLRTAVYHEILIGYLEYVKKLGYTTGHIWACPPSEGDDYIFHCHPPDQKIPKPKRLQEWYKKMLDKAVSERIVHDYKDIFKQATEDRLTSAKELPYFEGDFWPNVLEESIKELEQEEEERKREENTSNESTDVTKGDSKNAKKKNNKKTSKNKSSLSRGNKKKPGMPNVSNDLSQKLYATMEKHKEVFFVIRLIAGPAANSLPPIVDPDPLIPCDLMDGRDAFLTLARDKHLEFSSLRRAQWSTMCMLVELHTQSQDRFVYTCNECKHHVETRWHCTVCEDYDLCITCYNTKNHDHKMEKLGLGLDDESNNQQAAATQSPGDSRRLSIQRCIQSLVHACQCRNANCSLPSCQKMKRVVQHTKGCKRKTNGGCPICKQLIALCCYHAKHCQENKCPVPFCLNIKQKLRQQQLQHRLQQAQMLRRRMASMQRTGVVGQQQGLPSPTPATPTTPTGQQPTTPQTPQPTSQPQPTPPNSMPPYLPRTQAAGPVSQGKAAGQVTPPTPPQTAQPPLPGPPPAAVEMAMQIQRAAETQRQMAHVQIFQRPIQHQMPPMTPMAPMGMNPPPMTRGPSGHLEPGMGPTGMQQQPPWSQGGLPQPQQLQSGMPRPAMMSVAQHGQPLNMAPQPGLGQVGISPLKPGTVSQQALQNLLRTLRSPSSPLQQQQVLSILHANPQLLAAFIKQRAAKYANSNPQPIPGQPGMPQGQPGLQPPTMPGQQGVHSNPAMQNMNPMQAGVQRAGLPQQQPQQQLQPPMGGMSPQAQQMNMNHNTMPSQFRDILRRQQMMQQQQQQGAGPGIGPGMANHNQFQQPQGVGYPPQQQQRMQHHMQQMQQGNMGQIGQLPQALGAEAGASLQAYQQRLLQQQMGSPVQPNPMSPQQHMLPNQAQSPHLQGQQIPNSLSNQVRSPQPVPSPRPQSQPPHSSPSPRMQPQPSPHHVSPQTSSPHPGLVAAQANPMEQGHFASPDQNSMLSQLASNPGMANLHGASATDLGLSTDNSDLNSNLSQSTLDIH", "test": "In vitro p300 acetylation assay (immunoblot)", "format": "biochemical", "settings": "same range of concentration (10, 15, 20 and 25 μM)", "experimental": "Purified full length p300 protein was used for in vitro acetylation/butyrylation assay in presence/absence of different compounds. Acylation reactions were performed in reaction buffer (25 mM Tris-HCl PH 7.5, 100 mM NaCl, 0.1 mM EDTA, 1 mM DTT, 10% Glycerol, 1×PIC) with 100 ng/ml TSA, and 50 μM Butyryl-CoA/Acetyl COA. Xenopus histone H3 (500 ng) was used as the substrate and p300 (10,000 cpm activity) was used as the enzyme. Reactions were incubated in presence or absence of small molecule modulators (including compound of Formula I) for 10 minutes at 30° C., followed by initiation of the acetylation/butyrylation reaction by the addition of acetyl/butyryl CoA. After a further 10 minutes, reactions were stopped by addition of Laemmli buffer and samples were used for immunoblotting.\nImmunoblotting with antibodies against acetylated H3K18, acetylated H3K9 and pan-butyryl lysine was performed to check for the relative inhibition of acetyl transferase and butyryl transferase activities of full length p300 by garcinol, isogarcinol and its different derivatives including compound of Formula I at different concentrations. FIG. 2i depicts the effect of garcinol, isogarcinol and two of its derivatives LTK-13 and LTK-14 on p300 catalysed acetyltransferase activity. […] FIG. 2ii depicts the effect of LTK-14 on acetylation and butyrylation catalysed by p300. Lane 1, enzyme alone; Lane 2-4, enzyme+LTK-14 at concentrations 500 nM, 2 μM and 10 μM, respectively. LTK-14 could inhibit acetylation at 10 μM concentration while butyrylation was inhibited at 2 μM concentration. FIG. 2iii depicts the effect of compound x on acetylation and butyrylation catalysed by p300. Lane 1, enzyme alone; Lane 2, enzyme+DMSO; Lane 3-6, enzyme+compound x at concentrations 10, 15, 20 and 25 μM, respectively."}, "[1]": {"system": "C57BL/6J mice maintained on high fat diet", "test": "Weight gain of mice maintained on high fat diet, compound mixed with diet", "format": "in vivo", "settings": "50 mg/kg bw mixed with high fat diet", "experimental": "Male C57BL/6J mice (8 weeks old) were obtained and acclimatized for 1 week prior to experiments. Mice were maintained on a 12-hour light/dark cycle at 22+/−3° C. and a relative humidity of 55% and given ad libitum access to food and water. The age-matched C57BL/6J mice were maintained on a standard laboratory chow diet or high fat diet (60 kcal % fat) with or without compound of Formula I (50 mg/kg body weight) and water. Body weight and food intake was measured twice every week.\nTrend of weight gaining after 16 weeks of C57BL6/J mice maintained on normal chow diet, high fat diet and high fat diet mixed with compound of Formula I was plotted (FIG. 9) (panel i); n=4 in each group:one-way ANOVA with Dunnett's multiple comparison; * P<0.05, ** P<0.01, *** P<0.001, ns: not significant. Representative images of dissected bodies showing fat accumulation (panel ii) and epididymal fat pads (panel iii) of the mice from three groups. Representative images of morphology of adipose tissue (iv) and liver (v) from the mice of the three groups, as studied by hematoxylin and eosin staining."}, "[2]": {"system": "histone butyrylation and acetylation in liver and adipose tissue", "test": "Histone modifications in liver and adipose tissue of high fat diet mice", "format": "in vivo", "experimental": "Collected liver tissue samples were stored in 4% paraformaldehyde for 24 hours after which they were cryoprotected in 30% sucrose solution for two weeks. Cryosections were performed at 7 μm sections using Cryostat Leica CM1850 UV. For staining, the tissue sections were washed with PBS followed by antigen retrieval with 0.01 M citrate buffer (pH 6). The tissues were then permeabilised with 0.3% Triton X-100/PBS (PBST) and blocked with 2% serum followed by incubation with primary antibodies overnight at 4° C. The next day, secondary antibody incubation was carried out for one hour at room temperature followed by staining of the nuclei with Hoechst 33342 and mounting with 70% glycerol. Images were acquired by confocal microscopy. For quantitation, intensity of each modification specific staining was normalized with respect to the Hoechst staining intensity.\nIt was observed that H4K5 butyrylation in liver increased upon high fat diet consumption but was inhibited in presence of compound of Formula I (FIG. 10A). […] Acid extraction of histones was performed from the epididymal fat pads of mice using the same protocol as mentioned in example 7. It was observed that H4K5 butyrylation was reduced in the adipocytes of high fat diet fed mice treated with compound of Formula I compared to mice fed with high fat diet only (FIG. 10B)."}, "[3]": {"system": "genetically obese db/db mice", "test": "Body weight gain of genetically obese db/db mice", "format": "in vivo", "settings": "50 mg/kg oral gavage", "experimental": "Male db+/− and genetically obese db/db mice (8 weeks old) were obtained and acclimatized for 1 week prior to experiments. Mice were maintained on a 12-hour light/dark cycle at 22+/−3° C. and a relative humidity of 55% and given ad libitum access to food and water.\nThe age-matched db+/− and db/db mice were maintained on a standard laboratory pelleted diet and water. db/db mice were oral gavaged (50 mg/kg) with LTK14A in 0.5% carboxymethyl cellulose, equal volume of the vehicle was orally gavaged to control db/db mice for a total period of 30 days. db+/− animals were kept as untreated normal control group. The body weights and feed intake was recorded every week throughout the experimental period. The lean and fat mass of the mice were determined using Echo MRI in live mice on day 15th and day 30th.\nTrend of weight gaining after 30 days of genetically obese leptin receptor homozygous mutant mice with compound of Formula I was plotted against that of mutant mice treated with vehicle control and also heterozygous mutant mice (FIG. 10)(panel i). Average weight gain, average fat mass and average lean mass of the mice from the three groups are represented in bar p graphs (panel ii, iii and iv respectively); n=4 in each group:one-way ANOVA with Dunnett's multiple comparison; * P<0.05, ** P<0.01, *** P<0.001, ns: not significant."}, "[4]": {"system": "histone butyrylation and acetylation in liver and adipose tissue", "test": "Histone modifications in liver and adipose tissue of db/db mice", "format": "in vivo", "experimental": "Liver sample sectioning and immunohistochemical staining was performed using the same protocol as mentioned in example 15. It was observed that H4K5 butyrylation in liver increased in the db/db obese mice liver but was inhibited in presence of compound of Formula I (FIG. 13A). […] Acid extraction of histones was performed from the epididymal fat pads of mice using the same protocol as mentioned in example 7. It was observed that H4K5 butyrylation was reduced in the adipocytes of db/db mice treated with compound of Formula I compared to db/db mice treated with vehicle control (FIG. 13B)."}, "[5]": {"settings": "epididymal fat pads, immunoblot"}},
  "data": [
    {"smiles": "COc1ccc(C(=O)C2=C3OC(C)(C)[C@@H](CC=C(C)C)C[C@@]34C[C@@H](CC=C(C)C)C(C)(C)[C@@](CC=C(C)C)(C2=O)C4=O)cc1OC", "note": "[Compound X]", "values": [
      {"measurement": "effect on acetylation catalysed by p300", "setting": "full length p300", "result": "without affecting acetylation"},
      {"measurement": "adipose tissue hypertrophy", "setting": "[1]", "result": "less hypertrophy"},
      {"measurement": "liver lipid accumulation", "setting": "[1]", "result": "less lipid accumulation"},
      {"measurement": "weight gain", "setting": "[1]; 16 weeks", "result": "prevented weight gain"},
      {"measurement": "H4K5 butyrylation in adipocytes", "setting": "[2]; [5]", "result": "reduced"},
      {"measurement": "H4K5 butyrylation in liver", "setting": "[2]; immunohistochemistry", "result": "inhibited"},
      {"measurement": "H4K12 and H3K14 acetylation in liver", "setting": "[2]; immunohistochemistry", "result": "not affected"},
      {"measurement": "effect on fat mass compared to lean mass (Echo MRI)", "setting": "[3]", "result": "greater effect on fat mass"},
      {"measurement": "body weight", "setting": "[3]; 30 days", "result": "reduction in body weight"},
      {"measurement": "H4K5 butyrylation in adipocytes", "setting": "[4]; [5]", "result": "reduced"},
      {"measurement": "H4K5 butyrylation in liver", "setting": "[4]; immunohistochemistry", "result": "inhibited"},
      {"measurement": "H4K12 and H3K14 acetylation in liver", "setting": "[4]; immunohistochemistry", "result": "not affected"}
    ]}
  ]
}
